# Measurements as given in patent US9579314B2 (priority 2015, dated 2017).
# Legend:
# Human M3 receptor = Human M3 receptor (Homo sapiens, UniProt P20309); settings: read-out: M3 binding affinity
# Human β2 adrenoceptor = Human β2 adrenoceptor (Homo sapiens, UniProt P07550); settings: read-out: B2 binding affinity
# Chain of Human β2 adrenoceptor (P07550 whole entry): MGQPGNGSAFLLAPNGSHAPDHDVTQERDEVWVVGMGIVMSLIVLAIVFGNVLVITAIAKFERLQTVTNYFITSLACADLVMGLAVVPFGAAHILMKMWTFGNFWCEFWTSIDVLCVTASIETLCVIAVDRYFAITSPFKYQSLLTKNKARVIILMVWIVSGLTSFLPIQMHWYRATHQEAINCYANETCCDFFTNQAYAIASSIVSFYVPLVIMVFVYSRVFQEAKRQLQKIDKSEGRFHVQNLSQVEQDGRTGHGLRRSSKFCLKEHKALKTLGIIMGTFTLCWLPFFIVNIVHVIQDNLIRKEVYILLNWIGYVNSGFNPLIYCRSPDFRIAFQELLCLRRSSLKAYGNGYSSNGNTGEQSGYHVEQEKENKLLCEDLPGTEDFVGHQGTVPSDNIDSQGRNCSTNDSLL
# Chain of Human M3 receptor (P20309 whole entry): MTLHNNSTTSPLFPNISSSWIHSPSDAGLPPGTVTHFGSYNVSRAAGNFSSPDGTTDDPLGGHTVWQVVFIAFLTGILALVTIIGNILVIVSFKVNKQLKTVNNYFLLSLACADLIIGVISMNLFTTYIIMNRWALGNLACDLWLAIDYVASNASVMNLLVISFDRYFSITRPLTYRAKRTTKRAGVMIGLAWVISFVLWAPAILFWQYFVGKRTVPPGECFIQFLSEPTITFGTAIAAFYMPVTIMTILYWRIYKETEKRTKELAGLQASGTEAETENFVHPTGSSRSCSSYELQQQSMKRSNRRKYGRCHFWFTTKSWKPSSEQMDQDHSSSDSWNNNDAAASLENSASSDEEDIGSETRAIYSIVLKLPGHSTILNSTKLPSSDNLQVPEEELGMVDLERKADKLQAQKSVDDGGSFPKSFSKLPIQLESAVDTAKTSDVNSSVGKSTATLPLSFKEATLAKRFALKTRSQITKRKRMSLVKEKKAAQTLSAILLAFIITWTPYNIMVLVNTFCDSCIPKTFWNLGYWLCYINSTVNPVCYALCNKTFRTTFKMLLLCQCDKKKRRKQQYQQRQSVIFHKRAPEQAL
structure (smiles),measurement,setting,value
"O=C(COc1cccc([C@](O)(C(=O)OCC2CCN(Cc3ccccc3)CC2)c2ccccc2)c1)N[C@H]1C[C@H](NC(=O)c2ccc(CNC[C@H](O)c3ccc(O)c4[nH]c(=O)ccc34)c(O)c2)C1 [Compound 127, (1-Benzylpiperidin-4-yl)methyl (S)-2-hydroxy-2-(3-(2-(((1R,3S)-3-(3-hydroxy-4-((((R)-2-hydroxy-2-(8-hydroxy-2-oxo-1,2-dihydroquinolin-5-yl)ethyl)amino)methyl)-benzamido)cyclobutyl)amino)-2-oxoethoxy)phenyl)-2-phenylacetate]",IC50,Human M3 receptor,< 0.3 nM
same,IC50,Human β2 adrenoceptor,< 0.3 nM
"O=C(COc1cccc([C@](O)(C(=O)OCC2CCN(Cc3ccccc3)CC2)c2ccccc2)c1)N[C@H]1C[C@H](NC(=O)c2ccc(CNC[C@H](O)c3ccc(O)c4[nH]c(=O)ccc34)cc2F)C1 [Compound 128, (S)-(1-benzylpiperidin-4-yl)methyl 2-(3-(2-(((1R,3S)-3-(2-fluoro-4-((((R)-2-hydroxy-2-(8-hydroxy-2-oxo-1,2-dihydroquinolin-5-yl)ethyl)amino)methyl)benzamido)cyclobutyl)amino)-2-oxoethoxy)phenyl)-2-hydroxy-2-phenylacetate]",IC50,Human M3 receptor,0.3 to 3 nM
same,IC50,Human β2 adrenoceptor,< 0.3 nM
"COc1cc(CNC[C@H](O)c2ccc(O)c3[nH]c(=O)ccc23)ccc1C(=O)N[C@H]1C[C@H](NC(=O)COc2cccc([C@](O)(C(=O)OCC3CCN(Cc4ccccc4)CC3)c3ccccc3)c2)C1 [Compound 130, (S)-(1-benzylpiperidin-4-yl)methyl 2-hydroxy-2-(3-(2-(((1R,3S)-3-(4-((((R)-2-hydroxy-2-(8-hydroxy-2-oxo-1,2-dihydroquinolin-5-yl)ethyl)amino)methyl)-2-methoxybenzamido)cyclobutyl)amino)-2-oxoethoxy)phenyl)-2-phenylacetate]",IC50,Human M3 receptor,0.3 to 3 nM
same,IC50,Human β2 adrenoceptor,0.3 to 3 nM
"COc1cc(C(=O)N[C@H]2C[C@H](NC(=O)COc3cccc([C@](O)(C(=O)OCC4CCN(Cc5ccccc5)CC4)c4ccccc4)c3)C2)ccc1CNC[C@H](O)c1ccc(O)c2[nH]c(=O)ccc12 [Compound 131, (S)-(1-benzylpiperidin-4-yl)methyl 2-hydroxy-2-(3-(2-(((1R,3S)-3-(4-((((R)-2-hydroxy-2-(8-hydroxy-2-oxo-1,2-dihydroquinolin-5-yl)ethyl)amino)methyl)-3-methoxybenzamido)cyclobutyl)amino)-2-oxoethoxy)phenyl)-2-phenylacetate]",IC50,Human M3 receptor,0.3 to 3 nM
same,IC50,Human β2 adrenoceptor,< 0.3 nM
"O=C(COc1cccc([C@](O)(C(=O)OCC2CCN(Cc3ccccc3)CC2)c2ccccc2)c1)N[C@H]1C[C@H](NC(=O)c2ccc(CNC[C@H](O)c3ccc(O)c4[nH]c(=O)ccc34)c(F)c2)C1 [Compound 132, (1-benzylpiperidin-4-yl)methyl (S)-2-(3-(2-(((1R,3S)-3-(3-fluoro-4-((((R)-2-hydroxy-2-(8-hydroxy-2-oxo-1,2-dihydroquinolin-5-yl)ethyl)amino)methyl)benzamido)cyclobutyl)amino)-2-oxoethoxy)phenyl)-2-hydroxy-2-phenylacetate]",IC50,Human M3 receptor,0.3 to 3 nM
same,IC50,Human β2 adrenoceptor,< 0.3 nM
"O=C(COc1cccc([C@](O)(C(=O)OCC2CCN(Cc3ccccc3)CC2)c2ccccc2)c1)N[C@H]1C[C@H](NC(=O)c2ccc(CNC[C@H](O)c3ccc(O)c4[nH]c(=O)ccc34)cc2Cl)C1 [Compound 133, (1-benzylpiperidin-4-yl)methyl (S)-2-(3-(2-(((1R,3S)-3-(2-chloro-4-((((R)-2-hydroxy-2-(8-hydroxy-2-oxo-1,2-dihydroquinolin-5-yl)ethyl)amino)methyl)benzamido)cyclobutyl)amino)-2-oxoethoxy)phenyl)-2-hydroxy-2-phenylacetate]",IC50,Human M3 receptor,< 0.3 nM
same,IC50,Human β2 adrenoceptor,< 0.3 nM
"O=C(COc1cccc([C@](O)(C(=O)OCC2CCN(Cc3ccccc3)CC2)c2ccccc2)c1)N[C@H]1C[C@H](NC(=O)c2ccc(CNC[C@H](O)c3ccc(O)c4[nH]c(=O)ccc34)c(F)c2F)C1 [Compound 134, (1-benzylpiperidin-4-yl)methyl (S)-2-(3-(2-(((1R,3S)-3-(2,3-difluoro-4-((((R)-2-hydroxy-2-(8-hydroxy-2-oxo-1,2-dihydroquinolin-5-yl)ethyl)amino)methyl)benzamido)cyclobutyl)amino)-2-oxoethoxy)phenyl)-2-hydroxy-2-phenylacetate]",IC50,Human M3 receptor,0.3 to 3 nM
same,IC50,Human β2 adrenoceptor,< 0.3 nM
"O=C(COc1cccc([C@](O)(C(=O)OCC2CCN(Cc3ccccc3)CC2)c2ccccc2)c1)N[C@H]1C[C@H](NC(=O)c2ccc(CNC[C@H](O)c3ccc(O)c4[nH]c(=O)ccc34)c(Cl)c2)C1 [Compound 135, (1-benzylpiperidin-4-yl)methyl (S)-2-(3-(2-(((1R,3S)-3-(3-chloro-4-((((R)-2-hydroxy-2-(8-hydroxy-2-oxo-1,2-dihydroquinolin-5-yl)ethyl)amino)methyl)benzamido)cyclobutyl)amino)-2-oxoethoxy)phenyl)-2-hydroxy-2-phenylacetate]",IC50,Human M3 receptor,0.3 to 3 nM
same,IC50,Human β2 adrenoceptor,< 0.3 nM
"O=C(COc1cccc([C@](O)(C(=O)OCC2CCN(Cc3ccccc3)CC2)c2ccccc2)c1)N[C@H]1C[C@H](NC(=O)c2ccc(CNC[C@H](O)c3ccc(O)c4[nH]c(=O)ccc34)cc2Br)C1 [Compound 136, (1-benzylpiperidin-4-yl)methyl (S)-2-(3-(2-(((1R,3S)-3-(2-bromo-4-((((R)-2-hydroxy-2-(8-hydroxy-2-oxo-1,2-dihydroquinolin-5-yl)ethyl)amino)methyl)benzamido)cyclobutyl)amino)-2-oxoethoxy)phenyl)-2-hydroxy-2-phenylacetate]",IC50,Human M3 receptor,0.3 to 3 nM
same,IC50,Human β2 adrenoceptor,< 0.3 nM
"COc1cc(C(=O)N[C@H]2C[C@H](NC(=O)COc3cccc([C@](O)(C(=O)OCC4CCN(Cc5ccccc5)CC4)c4ccccc4)c3)C2)c(Cl)cc1CNC[C@H](O)c1ccc(O)c2[nH]c(=O)ccc12 [Compound 137, (1-benzylpiperidin-4-yl)methyl (S)-2-(3-(2-(((1R,3S)-3-(2-chloro-4-((((R)-2-hydroxy-2-(8-hydroxy-2-oxo-1,2-dihydroquinolin-5-yl)ethyl)amino)methyl)-5-methoxybenzamido)cyclobutyl)amino)-2-oxoethoxy)phenyl)-2-hydroxy-2-phenylacetate]",IC50,Human M3 receptor,0.3 to 3 nM
same,IC50,Human β2 adrenoceptor,< 0.3 nM
"O=C(COc1cccc([C@](O)(C(=O)OCC2CCN(Cc3ccccc3)CC2)c2ccccc2)c1)N[C@H]1C[C@H](NC(=O)c2ccc(CNC[C@H](O)c3ccc(O)c4[nH]c(=O)ccc34)c(C(F)(F)F)c2)C1 [Compound 138, (1-benzylpiperidin-4-yl)methyl (S)-2-hydroxy-2-(3-(2-(((1R,3S)-3-(4-((((R)-2-hydroxy-2-(8-hydroxy-2-oxo-1,2-dihydroquinolin-5-yl)ethyl)amino)methyl)-3-(trifluoromethyl)benzamido)cyclobutyl)amino)-2-oxoethoxy)phenyl)-2-phenylacetate]",IC50,Human M3 receptor,0.3 to 3 nM
same,IC50,Human β2 adrenoceptor,0.3 to 3 nM
"COc1c(CNC[C@H](O)c2ccc(O)c3[nH]c(=O)ccc23)ccc(C(=O)N[C@H]2C[C@H](NC(=O)COc3cccc([C@](O)(C(=O)OCC4CCN(Cc5ccccc5)CC4)c4ccccc4)c3)C2)c1F [Compound 139, (1-benzylpiperidin-4-yl)methyl (S)-2-(3-(2-(((1R,3S)-3-(2-fluoro-4-((((R)-2-hydroxy-2-(8-hydroxy-2-oxo-1,2-dihydroquinolin-5-yl)ethyl)amino)methyl)-3-methoxybenzamido)cyclobutyl)amino)-2-oxoethoxy)phenyl)-2-hydroxy-2-phenylacetate]",IC50,Human M3 receptor,0.3 to 3 nM
same,IC50,Human β2 adrenoceptor,< 0.3 nM
"CCOc1cc(C(=O)N[C@H]2C[C@H](NC(=O)COc3cccc([C@](O)(C(=O)OCC4CCN(Cc5ccccc5)CC4)c4ccccc4)c3)C2)ccc1CNC[C@H](O)c1ccc(O)c2[nH]c(=O)ccc12 [Compound 140, (1-benzylpiperidin-4-yl)methyl (S)-2-(3-(2-(((1R,3S)-3-(3-ethoxy-4-((((R)-2-hydroxy-2-(8-hydroxy-2-oxo-1,2-dihydroquinolin-5-yl)ethyl)amino)methyl)benzamido)cyclobutyl)amino)-2-oxoethoxy)phenyl)-2-hydroxy-2-phenylacetate]",IC50,Human M3 receptor,0.3 to 3 nM
same,IC50,Human β2 adrenoceptor,0.3 to 3 nM
"O=C(COc1cccc([C@](O)(C(=O)OCC2CCN(Cc3ccccc3)CC2)c2ccccc2)c1)N[C@H]1C[C@H](NC(=O)c2ccc(CNC[C@H](O)c3ccc(O)c4[nH]c(=O)ccc34)c(OC(F)(F)F)c2)C1 [Compound 141, (1-benzylpiperidin-4-yl)methyl (S)-2-hydroxy-2-(3-(2-(((1R,3S)-3-(4-((((R)-2-hydroxy-2-(8-hydroxy-2-oxo-1,2-dihydroquinolin-5-yl)ethyl)amino)methyl)-3-(trifluoromethoxy)benzamido)cyclobutyl)amino)-2-oxoethoxy)phenyl)-2-phenylacetate]",IC50,Human M3 receptor,0.3 to 3 nM
same,IC50,Human β2 adrenoceptor,0.3 to 3 nM
"COc1cc(C(=O)N[C@H]2C[C@H](NC(=O)COc3cccc([C@](O)(C(=O)OCC4CCN(Cc5ccccc5)CC4)c4ccccc4)c3)C2)c(F)cc1CNC[C@H](O)c1ccc(O)c2[nH]c(=O)ccc12 [Compound 142, (1-benzylpiperidin-4-yl)methyl (S)-2-(3-(2-(((1R,3S)-3-(2-fluoro-4-((((R)-2-hydroxy-2-(8-hydroxy-2-oxo-1,2-dihydroquinolin-5-yl)ethyl)amino)methyl)-5-methoxybenzamido)cyclobutyl)amino)-2-oxoethoxy)phenyl)-2-hydroxy-2-phenylacetate]",IC50,Human M3 receptor,0.3 to 3 nM
same,IC50,Human β2 adrenoceptor,< 0.3 nM
"CC(C)Oc1cc(C(=O)N[C@H]2C[C@H](NC(=O)COc3cccc([C@](O)(C(=O)OCC4CCN(Cc5ccccc5)CC4)c4ccccc4)c3)C2)ccc1CNC[C@H](O)c1ccc(O)c2[nH]c(=O)ccc12 [Compound 143, (1-benzylpiperidin-4-yl)methyl (S)-2-hydroxy-2-(3-(2-(((1R,3S)-3-(4-((((R)-2-hydroxy-2-(8-hydroxy-2-oxo-1,2-dihydroquinolin-5-yl)ethyl)amino)methyl)-3-isopropoxybenzamido)cyclobutyl)amino)-2-oxoethoxy)phenyl)-2-phenylacetate]",IC50,Human M3 receptor,0.3 to 3 nM
same,IC50,Human β2 adrenoceptor,0.3 to 3 nM
